Experiments:
DKK-1 = assay: Western blot of DHT-induced DKK-1 in HHFDPCs; format: cell-based, human; conditions: peptide at 500 nM, 5 μM and 50 μM with 100 nM DHT, 24 hours, FIG. 5
From the text: It is known that in hair follicles, dihydrotestosterone (DHT) promotes the expression of Dickkopf-1 (DKK-1), and DKK-1 induced by DHT inhibits the proliferation of keratinocytes in hair follicles and causes their apoptosis, thereby promoting hair loss (J of Invest Dermatolo. 2008, February, 128(2), pp. 262-269.). The effect of the peptide prepared in Preparation Example 1 above on the expression level of the hair loss-inducing protein DKK-1 in human hair follicle dermal papilla cells (HHFDPCs) was confirmed by Western blot method.
HHFDPCs were seeded in a 6-well cell culture plate at a density of 4×10^5 cells/well and cultured for 24 hours under mesenchymal stem cell complete media conditions. Then, the medium was replaced with serum-free mesenchymal stem cell medium and cultured for additional 24 hours. The cultured cell culture was treated with 500 nM, 5 μM, and 50 μM of the peptide prepared in Preparation Example 1 above, respectively. treated with 5 μM of finasteride to serve as a positive control, and not treated with anything to serve as a negative control group (con). […] Equal amounts of protein samples were prepared by BCA quantification of cell lysates. […] The resultant was washed 3 times for 15 minutes each with 0.1% PBS-T (0.1% Tween-20 in PBS), treated with ECL solution (GE Healthcare, USA), and detected with a film.

Ha3-II = assay: RT-PCR of Ha3-II gene expression in HHORSCs; format: cell-based, human; conditions: peptide at 500 nM, 5 μM and 50 μM, 24 hours, FIG. 6
Protocol: (§1) The effect of the peptide prepared in Preparation Example 1 above on the activation of human hair outer root sheath cells (HHORSCs) was confirmed by measuring the expression of cytokeratin proteins.
(§2) HHORSCs were seeded in a 96-well cell culture plate at a density of 4×10^3 cells/well and cultured for 24 hours under mesenchymal stem cell complete media conditions. Then, the medium was replaced with serum free mesenchymal stem cell medium and cultured for additional 24 hours. The cultured cell culture was treated with 500 nM, 5 μM, and 50 μM of the peptide prepared in Preparation Example 1 above, respectively, and treated with 100 nM of epidermal growth factor (EGF) as a positive control, and negative when not treated with anything to serve as a negative control (con), and these cultures were cultured at 37° C. for 24 hours. After washing each culture with PBS, RNA was isolated by treatment with 300 μL of eaay blue (Intron, South Korea). The isolated RNA was quantified using Nano drop, and then subjected to cDNA synthesis using a cDNA synthesis kit (Enzynomics, South Korea). Then, a PCR reaction was performed using the primers shown in Table 3 below and a PCR premix (Enzynomics, South Korea). The PCR reaction product was electrophoresed on a 1.5% agarose gel, and the bands were detected using the Bio-Rad Gel Image System.

c-Myc = assay: RT-PCR of c-Myc gene expression in HHFDPCs; format: cell-based, human; conditions: peptide at 500 nM, 5 μM and 50 μM, 24 hours, FIG. 4
Protocol: (§3) The effect of the peptide prepared in Preparation Example 1 above on the expression levels of lymphoid enhancer-binding factor 1 (LEF-1) and c-Myc, which are downstream genes of beta-catenin, in human hair follicle dermal papilla cells (HHFDPCs) was determined by the RT-PCR method.
(§4) HHFDPCs were seeded in a 6-well cell culture plate at a density of 4×10^5 cells/well and cultured for 24 hours under mesenchymal stem cell complete media conditions. Then, the medium was replaced with serum free mesenchymal stem cell medium and cultured for additional 24 hours. The cultured cell culture was treated with the peptide prepared in Preparation Example 1 above at 500 nM, 5 μM, and 50 μM, respectively, and treated with 10 ng/mL of rhWnt-3a (recombinant human Wnt-3a protein, R&D systems (MN, USA) to serve as a positive control, and not treated with anything to serve as a negative control (con), and each was cultured at 37° C. for additional 24 hours. After washing each culture with PBS, RNA was isolated therefrom by treatment with 300 μL of eaay blue (Intron, South Korea). The isolated RNA was quantified using Nano drop, and then subjected to cDNA synthesis using a cDNA synthesis kit (Enzynomics, South Korea). […] The PCR reaction product was electrophoresed on a 1.5% agarose gel, and the bands were detected using the Bio-Rad Gel Image System.

[1] = test system: extracellular-regulated kinase (ERK); assay: Western blot of phospho-ERK in HHFDPCs; format: cell-based, human; conditions: peptide at 500 nM, 5 μM and 50 μM, 24 hours, FIG. 2
Protocol: (§5) The effect of the peptide prepared in Preparation Example 1 above on the activation of proliferation-related signaling molecules in human hair follicle dermal papilla cells (HHFDPCs) was confirmed by Western blot method.
(§6) HHFDPCs were seeded in a 6-well cell culture plate at a density of 4×10^5 cells/well and cultured for 24 hours under mesenchymal stem cell complete media conditions. Then, the medium was replaced with serum-free mesenchymal stem cell medium and cultured for additional 24 hours. The cultured cell culture was treated with the peptide prepared in Preparation Example 1 above at 500 nM, 5 μM, and 50 μM, respectively, 1 μM of Minoxidil (MNX) and 1 μM of VEGF were treated to serve as a positive control, and not treated with anything to serve as a negative control (con), and the cultures treated with these materials were cultured at 37° C. for additional 24 hours. After washing each culture with PBS, the cells were lysed by treatment with lysis buffer to obtain a cell lysate. Equal amounts of protein samples were prepared by BCA quantification of cell lysates. The prepared protein samples were subjected to electrophoresis using 10% SDS-PAGE. […] The resultant was washed 3 times for 15 minutes each with 0.1% PBS-T (0.1% Tween-20 in PBS), treated with ECL solution (GE Healthcare, USA), and detected with a film.

beta-catenin = assay: Western blot of nuclear beta-catenin in HHFDPCs; format: cell-based, human; conditions: peptide at 500 nM, 5 μM and 50 μM, 24 hours, nuclear protein Western blot, FIG. 3
Protocol: The effect of the peptide prepared in Preparation Example 1 above on the activation of beta-catenin in human hair follicle dermal papilla cells (HHFDPCs) was confirmed by Western blot method.
HHFDPCs were seeded in a 6-well cell culture plate at a density of 4×10^5 cells/well and cultured for 24 hours under mesenchymal stem cell complete media conditions. Then, the medium was replaced with serum-free mesenchymal stem cell medium and cultured for additional 24 hours. The cultured cell culture was treated with the peptide prepared in Preparation Example 1 above at 500 nM, 5 μM, and 50 μM, respectively, and treated with 10 ng/mL of rhWnt-3a (recombinant human Wnt-3a protein, R&D systems (MN, USA) to serve as a positive control, and not treated with anything to serve as a negative control (con). The cultures treated with these materials were incubated at 37° C. for additional 24 hours. After washing each culture with PBS, nuclear proteins were isolated using a nuclear protein extraction kit (Thermo scientific, USA), and an equal amount of protein sample was prepared by BCA quantification. The prepared protein samples were subjected to electrophoresis using 10% SDS-PAGE. […] The resultant was washed 3 times for 15 minutes each with 0.1% PBS-T (0.1% Tween-20 in PBS), treated with ECL solution (GE Healthcare, USA), and detected with a film.

Keratin 19 = assay: RT-PCR of Keratin 19 gene expression in HHORSCs; format: cell-based, human; conditions: peptide at 500 nM, 5 μM and 50 μM, 24 hours, FIG. 6
Protocol: as §1, §2

Akt = assay: Western blot of phospho-AKT in HHFDPCs; format: cell-based, human; conditions: peptide at 500 nM, 5 μM and 50 μM, 24 hours, FIG. 2
Protocol: as §5, §6

[2] = test system: human hair follicle dermal papilla cells (HHFDPCs); assay: Proliferation of human hair follicle dermal papilla cells (MTT); format: cell-based; conditions: peptide at 500 nM, 5 μM and 50 μM, 72 hours, absorbance 540 nm, FIG. 1
Protocol: The effect of the peptide prepared in Preparation Example 1 above on the proliferation of human hair follicle dermal papilla cells (HHFDPCs) was tested.
HHFDPCs were seeded in a 96-well cell culture plate at a density of 4×10^3 cells/well and cultured for 24 hours under mesenchymal stem cell complete media conditions. Then, the medium was replaced with serum-free mesenchymal stem cell medium and cultured for additional 24 hours. The cultured cell culture was treated with the peptide prepared in Preparation Example 1 above at 500 nM, 5 μM, and 50 μM, respectively, treated with 1 μM VEGF to serve as a positive control, and not treated with anything to serve as a negative control (con), and these cultures were cultured at 37° C. for additional 72 hours. Thereafter, 10 μL of MTT solution (5 mg/mL) was added thereto, and the mixture was incubated in a CO2 incubator at 37° C. for 4 hours, the medium was removed, and 100 μL of DMSO was added thereto and shaken for 10 minutes. Finally, the absorbance was measured at a wavelength of 540 nm using a spectrophotometer (Molecular Devices (SpectraMax iD3, CA, USA)).

Keratin 14 = assay: RT-PCR of Keratin 14 gene expression in HHORSCs; format: cell-based, human; conditions: peptide at 500 nM, 5 μM and 50 μM, 24 hours, FIG. 6
Protocol: as §1, §2

LEF-1 = assay: RT-PCR of LEF-1 gene expression in HHFDPCs; format: cell-based, human; conditions: peptide at 500 nM, 5 μM and 50 μM, 24 hours, FIG. 4
Protocol: as §3, §4

Keratin 5 = assay: RT-PCR of Keratin 5 gene expression in HHORSCs; format: cell-based, human; conditions: peptide at 500 nM, 5 μM and 50 μM, 24 hours, FIG. 6
Protocol: as §1, §2

LKRYKHLV (Leu-Lys-Arg-Tyr-Lys-His-Leu-Val) [peptide of Preparation Example 1]
expression of DKK-1 induced by DHT treatment (DKK-1): reduced in a concentration-dependent manner | gene expression of Ha3-II (Ha3-II): increasing | gene expression of c-Myc (c-Myc): increased | phosphorylation of extracellular-regulated kinase (ERK) [1]: increased | beta-catenin activation and movement to the nucleus (beta-catenin): increased | gene expression of Keratin 19 (Keratin 19): increasing | phosphorylation of Akt (Akt): increased | proliferation of HHFDPC compared to the negative control (con) [2]: promoted | gene expression of Keratin 14 (Keratin 14): increasing | gene expression of LEF-1 (LEF-1): increased | gene expression of Keratin 5 (Keratin 5): increasing

Source: US20260139004A1, “PEPTIDE HAVING ACTIVITIES OF PROMOTING HAIR GROWTH AND INHIBITING HAIR LOSS, AND USES THEREOF” (CAREGEN CO., LTD., priority 2022, published 2026)
